Measured values as given in ChEMBL document CHEMBL4804285, “Small molecule inhibitors of cdk12/cdk13” (2019).
Values joined by “and” are separate entries in the source; they are usually repeats but may differ in a detail not shown here. Identical values can stand only once.

Assays:
[1] = target: Casein kinase I isoform delta (Homo sapiens, UniProt P48730); assay: Inhibition of casein kinase 1delta (unknown origin)
[2] = target: Casein kinase I isoform epsilon (Homo sapiens, UniProt P49674); assay: Inhibition of casein kinase 1epsilon (unknown origin)
Cytochrome P450 1A2 = target: T1, Cytochrome P450 1A2 (Homo sapiens, UniProt P05177); assay: Inhibition of CYP1A2 (unknown origin); format: ADME
T1 sequence (P05177 whole entry): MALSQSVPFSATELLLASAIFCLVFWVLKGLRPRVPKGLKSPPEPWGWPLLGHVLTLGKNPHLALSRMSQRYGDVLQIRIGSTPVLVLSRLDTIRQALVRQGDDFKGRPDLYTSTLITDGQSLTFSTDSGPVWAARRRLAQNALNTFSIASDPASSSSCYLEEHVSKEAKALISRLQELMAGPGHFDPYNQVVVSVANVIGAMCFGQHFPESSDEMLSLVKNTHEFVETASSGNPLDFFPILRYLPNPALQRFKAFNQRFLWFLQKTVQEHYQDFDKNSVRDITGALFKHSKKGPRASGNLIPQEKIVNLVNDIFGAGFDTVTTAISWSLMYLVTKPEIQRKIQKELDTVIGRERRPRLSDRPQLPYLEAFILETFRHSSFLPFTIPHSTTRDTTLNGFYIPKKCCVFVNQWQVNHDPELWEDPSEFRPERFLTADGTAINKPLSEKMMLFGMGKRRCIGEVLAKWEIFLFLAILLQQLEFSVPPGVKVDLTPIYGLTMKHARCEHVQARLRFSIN

Cytochrome P450 2C9 = Cytochrome P450 2C9 (Homo sapiens, UniProt P11712); assay: Inhibition of CYP2C9 (unknown origin); format: ADME
Cytochrome P450 2D6 = Cytochrome P450 2D6 (Homo sapiens, UniProt P10635); assay: Inhibition of CYP2D6 (unknown origin); format: ADME
Cytochrome P450 3A4 = Cytochrome P450 3A4 (Homo sapiens, UniProt P08684); assay: Inhibition of CYP3A4 (unknown origin); format: ADME
[3] = target: Cyclin-dependent kinase 7 (Homo sapiens) (UniProt P50613); assay: Inhibition of CDK7 (unknown origin) at 10 uM relative to control
[4] = target: T2, Cyclin-dependent kinase 13 (Homo sapiens, UniProt Q14004); assay: Inhibition of CDK13 (unknown origin) at 10 uM relative to control
[5] = target: Cyclin-dependent kinase 19 (Homo sapiens) (UniProt Q9BWU1); assay: Inhibition of CDK11 (unknown origin) at 10 uM relative to control
[6] = target: Cyclin-dependent kinase 2 (Homo sapiens) (UniProt P24941); assay: Inhibition of CDK2 (unknown origin) at 10 uM relative to control
[7] = target: Cyclin-dependent kinase 3 (Homo sapiens) (UniProt Q00526); assay: Inhibition of CDK3 (unknown origin) at 10 uM relative to control
[8] = target: Cyclin-dependent kinase 4/cyclin D1 (Homo sapiens) (UniProt P11802+P24385); assay: Inhibition of CDK4/Cyclin D1 (unknown origin) at 10 uM relative to control; format: protein-complex assay
[9] = target: CDK4/Cyclin D3 (Homo sapiens) (UniProt P11802+P30281); assay: Inhibition of CDK4/Cyclin D3 (unknown origin) at 10 uM relative to control; format: protein-complex assay
[10] = target: Cyclin-dependent kinase 8 (Homo sapiens) (UniProt P49336); assay: Inhibition of CDK8 (unknown origin) at 10 uM relative to control
[11] = target: Cyclin-dependent kinase 9 (Homo sapiens) (UniProt P50750); assay: Inhibition of CDK9 (unknown origin) at 10 uM relative to control
[12] = target: Cyclin-dependent kinase-like 1 (Homo sapiens) (UniProt Q00532); assay: Inhibition of CDKL1 (unknown origin) at 10 uM relative to control
[13] = target: T3, Cyclin-dependent kinase-like 2 (Homo sapiens) (UniProt Q92772); assay: Inhibition of CDKL2 (unknown origin) at 10 uM relative to control
T3 sequence (whole entry): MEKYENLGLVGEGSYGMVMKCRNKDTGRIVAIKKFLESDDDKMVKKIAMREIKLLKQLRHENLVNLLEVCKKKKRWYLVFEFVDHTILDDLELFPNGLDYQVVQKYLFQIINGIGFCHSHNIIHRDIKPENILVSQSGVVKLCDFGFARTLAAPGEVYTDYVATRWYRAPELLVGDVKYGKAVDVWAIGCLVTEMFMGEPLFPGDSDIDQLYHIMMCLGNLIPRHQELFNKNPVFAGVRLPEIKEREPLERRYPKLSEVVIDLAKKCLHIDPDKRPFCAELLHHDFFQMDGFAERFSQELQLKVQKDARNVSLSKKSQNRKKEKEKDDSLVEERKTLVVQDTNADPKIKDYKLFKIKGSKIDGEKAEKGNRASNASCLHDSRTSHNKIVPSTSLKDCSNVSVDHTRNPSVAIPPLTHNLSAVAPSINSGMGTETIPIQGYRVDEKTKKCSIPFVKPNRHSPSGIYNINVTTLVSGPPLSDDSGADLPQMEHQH

[14] = target: Cyclin-dependent kinase-like 3 (Homo sapiens) (UniProt Q8IVW4); assay: Inhibition of CDKL3 (unknown origin) at 10 uM relative to control
[15] = target: T4, Cyclin-dependent kinase-like 5 (Homo sapiens) (UniProt O76039); assay: Inhibition of CDKL5 (unknown origin) at 10 uM relative to control
T4 sequence (whole entry): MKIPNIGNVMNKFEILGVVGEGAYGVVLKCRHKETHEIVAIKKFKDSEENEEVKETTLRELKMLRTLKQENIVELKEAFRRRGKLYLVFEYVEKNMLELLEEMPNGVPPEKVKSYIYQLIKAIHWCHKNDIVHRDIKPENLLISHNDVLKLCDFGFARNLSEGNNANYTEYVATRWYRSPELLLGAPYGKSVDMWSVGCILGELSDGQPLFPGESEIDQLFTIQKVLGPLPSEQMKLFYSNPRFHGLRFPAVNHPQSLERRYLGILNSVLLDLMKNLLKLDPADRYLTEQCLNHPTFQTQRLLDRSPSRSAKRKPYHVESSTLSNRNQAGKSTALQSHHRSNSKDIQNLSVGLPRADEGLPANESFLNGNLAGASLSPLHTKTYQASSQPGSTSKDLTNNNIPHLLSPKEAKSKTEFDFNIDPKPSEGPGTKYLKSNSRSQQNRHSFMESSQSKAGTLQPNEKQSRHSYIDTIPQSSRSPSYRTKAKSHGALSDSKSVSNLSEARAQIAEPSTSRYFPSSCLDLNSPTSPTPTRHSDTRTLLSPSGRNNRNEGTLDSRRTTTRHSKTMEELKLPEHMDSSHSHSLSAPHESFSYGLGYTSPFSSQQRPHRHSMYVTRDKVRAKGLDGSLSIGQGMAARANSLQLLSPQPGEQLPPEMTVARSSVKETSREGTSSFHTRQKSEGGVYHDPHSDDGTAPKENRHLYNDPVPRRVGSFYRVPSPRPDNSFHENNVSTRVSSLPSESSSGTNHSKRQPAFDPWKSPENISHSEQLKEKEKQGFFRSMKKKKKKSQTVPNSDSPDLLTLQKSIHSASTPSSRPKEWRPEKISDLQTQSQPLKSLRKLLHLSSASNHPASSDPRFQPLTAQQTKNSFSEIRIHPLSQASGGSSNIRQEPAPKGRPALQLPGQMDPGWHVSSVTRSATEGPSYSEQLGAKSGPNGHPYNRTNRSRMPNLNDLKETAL

[16] = target: Cyclin-dependent kinase 5 (Homo sapiens) (UniProt Q00535); assay: Inhibition of CDK5 (unknown origin) at 10 uM relative to control
[17] = target: Cyclin-dependent kinase 12 (Homo sapiens, UniProt Q9NYV4); assay: Binding affinity towards CDK12 (unknown origin) by Discover X assay
[18] = target: T2, Cyclin-dependent kinase 13; assay: Binding affinity towards CDK13 (unknown origin) by Discover X assay
[19] = target: Cyclin-dependent kinase 4 (Homo sapiens) (UniProt P11802); assay: Inhibition of CDK4 (unknown origin) at 10 uM relative to control
[20] = Cmax in mouse at 20 mg/kg, ip; format: ADME, organism-based; set-up: route intraperitoneal, dose 20 mg/kg; conditions: in vivo
[21] = AUC (last) in mouse at 20 mg/kg, ip; format: ADME, organism-based; set-up: time 0 - last, route intraperitoneal, dose 20 mg/kg; conditions: in vivo

Chain of Casein kinase I isoform epsilon (P49674 whole entry, canonical isoform): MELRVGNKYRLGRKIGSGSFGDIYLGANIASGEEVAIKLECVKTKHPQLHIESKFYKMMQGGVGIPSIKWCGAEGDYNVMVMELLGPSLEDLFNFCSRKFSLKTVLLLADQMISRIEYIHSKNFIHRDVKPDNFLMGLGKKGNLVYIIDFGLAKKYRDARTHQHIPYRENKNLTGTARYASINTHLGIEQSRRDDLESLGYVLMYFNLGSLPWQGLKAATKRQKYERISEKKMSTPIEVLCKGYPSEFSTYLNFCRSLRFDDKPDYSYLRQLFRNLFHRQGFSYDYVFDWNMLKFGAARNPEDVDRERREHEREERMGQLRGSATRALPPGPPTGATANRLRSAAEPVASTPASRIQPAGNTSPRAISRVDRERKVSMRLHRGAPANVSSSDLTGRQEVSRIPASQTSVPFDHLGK
Chain of Cytochrome P450 2D6 (P10635 whole entry): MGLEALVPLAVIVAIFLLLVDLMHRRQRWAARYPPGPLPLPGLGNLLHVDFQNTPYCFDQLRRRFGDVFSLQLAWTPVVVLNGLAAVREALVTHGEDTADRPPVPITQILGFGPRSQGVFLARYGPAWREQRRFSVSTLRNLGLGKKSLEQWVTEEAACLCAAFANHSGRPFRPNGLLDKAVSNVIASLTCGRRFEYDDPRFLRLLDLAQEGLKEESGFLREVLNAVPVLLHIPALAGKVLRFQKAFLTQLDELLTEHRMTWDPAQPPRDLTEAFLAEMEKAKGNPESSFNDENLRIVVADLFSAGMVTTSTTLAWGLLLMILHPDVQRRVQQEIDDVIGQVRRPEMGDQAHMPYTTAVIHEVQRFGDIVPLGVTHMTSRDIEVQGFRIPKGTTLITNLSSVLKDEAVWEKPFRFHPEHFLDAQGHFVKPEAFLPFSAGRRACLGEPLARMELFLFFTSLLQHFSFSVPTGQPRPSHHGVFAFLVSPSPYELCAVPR
Chain of Cytochrome P450 3A4 (P08684 whole entry): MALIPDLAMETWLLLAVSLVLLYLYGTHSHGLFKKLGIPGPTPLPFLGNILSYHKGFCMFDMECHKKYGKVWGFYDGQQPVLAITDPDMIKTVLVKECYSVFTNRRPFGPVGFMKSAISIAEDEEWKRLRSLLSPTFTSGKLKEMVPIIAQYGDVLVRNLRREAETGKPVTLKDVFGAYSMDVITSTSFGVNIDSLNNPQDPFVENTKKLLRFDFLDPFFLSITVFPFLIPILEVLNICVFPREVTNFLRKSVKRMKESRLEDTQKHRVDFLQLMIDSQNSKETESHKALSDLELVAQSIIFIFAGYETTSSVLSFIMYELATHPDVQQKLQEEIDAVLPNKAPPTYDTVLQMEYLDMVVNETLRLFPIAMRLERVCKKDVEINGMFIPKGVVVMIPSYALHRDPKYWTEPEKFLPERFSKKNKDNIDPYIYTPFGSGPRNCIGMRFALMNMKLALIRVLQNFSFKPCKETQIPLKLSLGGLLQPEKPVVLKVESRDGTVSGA
Chain of Cyclin-dependent kinase 7 (Homo sapiens) (P50613 whole entry): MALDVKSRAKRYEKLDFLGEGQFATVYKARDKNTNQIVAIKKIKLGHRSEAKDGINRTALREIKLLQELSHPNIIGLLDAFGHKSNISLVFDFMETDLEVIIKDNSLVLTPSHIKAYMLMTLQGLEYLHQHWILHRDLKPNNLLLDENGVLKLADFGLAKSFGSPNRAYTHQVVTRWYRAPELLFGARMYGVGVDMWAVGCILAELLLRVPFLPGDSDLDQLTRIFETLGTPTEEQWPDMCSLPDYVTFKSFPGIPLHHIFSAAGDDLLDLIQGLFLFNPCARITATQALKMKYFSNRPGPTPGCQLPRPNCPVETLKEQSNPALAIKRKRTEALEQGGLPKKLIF
Chain of Cyclin-dependent kinase-like 3 (Homo sapiens) (Q8IVW4 whole entry, looked up): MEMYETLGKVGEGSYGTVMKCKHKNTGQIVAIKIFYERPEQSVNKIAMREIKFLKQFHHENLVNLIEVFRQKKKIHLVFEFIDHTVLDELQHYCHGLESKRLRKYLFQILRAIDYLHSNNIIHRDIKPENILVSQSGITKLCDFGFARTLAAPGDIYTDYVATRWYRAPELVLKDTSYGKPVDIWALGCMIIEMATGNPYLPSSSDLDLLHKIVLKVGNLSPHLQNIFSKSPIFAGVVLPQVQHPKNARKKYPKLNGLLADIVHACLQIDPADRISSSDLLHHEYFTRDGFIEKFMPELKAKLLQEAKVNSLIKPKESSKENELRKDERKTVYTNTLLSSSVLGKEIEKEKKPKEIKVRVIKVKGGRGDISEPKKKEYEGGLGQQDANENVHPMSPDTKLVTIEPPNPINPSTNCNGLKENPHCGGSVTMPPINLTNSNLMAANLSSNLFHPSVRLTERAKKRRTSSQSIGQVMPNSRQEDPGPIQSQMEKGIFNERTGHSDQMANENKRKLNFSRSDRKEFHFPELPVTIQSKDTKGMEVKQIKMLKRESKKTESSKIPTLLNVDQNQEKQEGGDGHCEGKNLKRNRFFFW
Chain of Cyclin-dependent kinase 9 (Homo sapiens) (P50750 whole entry): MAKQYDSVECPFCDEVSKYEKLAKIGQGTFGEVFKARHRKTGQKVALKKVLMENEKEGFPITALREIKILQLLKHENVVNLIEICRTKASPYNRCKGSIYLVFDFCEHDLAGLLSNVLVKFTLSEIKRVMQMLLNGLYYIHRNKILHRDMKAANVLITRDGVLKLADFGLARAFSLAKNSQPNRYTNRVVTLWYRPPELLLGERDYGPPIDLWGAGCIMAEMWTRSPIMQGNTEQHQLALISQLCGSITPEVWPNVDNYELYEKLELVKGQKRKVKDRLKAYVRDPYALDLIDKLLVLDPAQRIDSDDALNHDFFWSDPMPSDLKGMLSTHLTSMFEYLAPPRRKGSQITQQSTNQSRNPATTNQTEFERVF
Chain of Cytochrome P450 2C9 (P11712 whole entry): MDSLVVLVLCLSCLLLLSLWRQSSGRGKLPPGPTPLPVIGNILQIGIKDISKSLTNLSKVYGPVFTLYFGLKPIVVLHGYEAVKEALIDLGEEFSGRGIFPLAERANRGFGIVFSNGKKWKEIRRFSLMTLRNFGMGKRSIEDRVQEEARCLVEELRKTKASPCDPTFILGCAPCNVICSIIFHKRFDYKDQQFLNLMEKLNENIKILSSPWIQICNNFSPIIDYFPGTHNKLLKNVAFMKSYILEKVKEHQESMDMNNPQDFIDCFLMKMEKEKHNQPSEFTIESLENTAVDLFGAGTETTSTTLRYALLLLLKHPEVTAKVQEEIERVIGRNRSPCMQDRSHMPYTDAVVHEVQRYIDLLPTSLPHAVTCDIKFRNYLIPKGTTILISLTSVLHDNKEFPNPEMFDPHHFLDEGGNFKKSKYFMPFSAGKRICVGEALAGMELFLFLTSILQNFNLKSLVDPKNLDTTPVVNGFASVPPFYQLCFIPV
Chain of Cyclin-dependent kinase 19 (Homo sapiens) (Q9BWU1 whole entry): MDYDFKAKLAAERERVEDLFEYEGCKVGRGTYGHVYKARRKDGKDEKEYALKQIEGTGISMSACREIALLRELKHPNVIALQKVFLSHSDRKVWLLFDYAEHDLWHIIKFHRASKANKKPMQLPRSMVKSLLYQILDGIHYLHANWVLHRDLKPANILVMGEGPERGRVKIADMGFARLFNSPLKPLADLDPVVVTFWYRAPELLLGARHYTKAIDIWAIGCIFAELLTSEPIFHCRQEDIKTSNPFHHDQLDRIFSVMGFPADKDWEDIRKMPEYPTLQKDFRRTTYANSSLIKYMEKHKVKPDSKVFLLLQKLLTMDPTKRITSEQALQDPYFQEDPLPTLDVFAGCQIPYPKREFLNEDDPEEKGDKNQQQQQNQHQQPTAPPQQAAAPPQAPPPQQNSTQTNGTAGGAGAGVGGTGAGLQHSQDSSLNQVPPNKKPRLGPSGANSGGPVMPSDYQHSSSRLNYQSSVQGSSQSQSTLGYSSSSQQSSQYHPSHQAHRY
Chain of Cyclin-dependent kinase 3 (Homo sapiens) (Q00526 whole entry, looked up): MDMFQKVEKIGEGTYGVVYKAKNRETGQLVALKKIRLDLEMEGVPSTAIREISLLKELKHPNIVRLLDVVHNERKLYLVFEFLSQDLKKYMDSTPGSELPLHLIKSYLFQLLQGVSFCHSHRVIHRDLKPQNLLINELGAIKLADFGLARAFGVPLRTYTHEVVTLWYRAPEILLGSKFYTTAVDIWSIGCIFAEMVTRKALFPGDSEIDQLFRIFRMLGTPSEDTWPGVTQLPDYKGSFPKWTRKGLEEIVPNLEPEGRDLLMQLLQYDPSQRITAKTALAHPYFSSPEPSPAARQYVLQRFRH
Chain of Cyclin-dependent kinase 8 (Homo sapiens) (P49336 whole entry): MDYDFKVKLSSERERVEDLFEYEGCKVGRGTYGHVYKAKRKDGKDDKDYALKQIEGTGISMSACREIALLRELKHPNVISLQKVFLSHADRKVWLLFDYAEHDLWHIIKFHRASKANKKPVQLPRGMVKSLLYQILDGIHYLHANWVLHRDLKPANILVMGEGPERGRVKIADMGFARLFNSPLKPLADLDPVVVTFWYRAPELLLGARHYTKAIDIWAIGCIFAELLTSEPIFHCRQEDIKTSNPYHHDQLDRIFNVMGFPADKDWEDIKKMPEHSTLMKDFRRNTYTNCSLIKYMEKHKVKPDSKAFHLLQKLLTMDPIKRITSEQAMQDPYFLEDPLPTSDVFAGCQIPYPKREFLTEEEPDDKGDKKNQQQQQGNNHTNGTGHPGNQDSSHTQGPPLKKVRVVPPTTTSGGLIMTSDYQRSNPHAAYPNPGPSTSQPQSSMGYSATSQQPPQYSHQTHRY
Chain of Cyclin-dependent kinase-like 1 (Homo sapiens) (Q00532 whole entry): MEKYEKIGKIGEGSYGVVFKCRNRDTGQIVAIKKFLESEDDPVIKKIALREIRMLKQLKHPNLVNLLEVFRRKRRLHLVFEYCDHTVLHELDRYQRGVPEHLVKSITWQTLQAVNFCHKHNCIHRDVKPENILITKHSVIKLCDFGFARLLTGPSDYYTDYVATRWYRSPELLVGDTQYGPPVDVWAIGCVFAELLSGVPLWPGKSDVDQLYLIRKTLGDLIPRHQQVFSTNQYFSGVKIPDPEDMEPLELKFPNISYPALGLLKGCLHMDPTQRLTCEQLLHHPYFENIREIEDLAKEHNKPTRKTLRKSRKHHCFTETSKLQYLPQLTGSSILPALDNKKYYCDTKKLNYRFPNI

SMILES	IC50 [1] [nM]	IC50 [2] [nM]	inhibition (INH) (Cytochrome P450 1A2) [%]	inhibition (INH) (Cytochrome P450 2C9) [%]	inhibition (INH) (Cytochrome P450 2D6) [%]	inhibition (INH) (Cytochrome P450 3A4) [%]	inhibition [3] [%]	inhibition [4] [%]	inhibition [5] [%]	inhibition [6] [%]	inhibition [7] [%]	inhibition [8] [%]	inhibition [9] [%]	inhibition [10] [%]	inhibition [11] [%]	inhibition [12] [%]	inhibition [13] [%]	inhibition [14] [%]	inhibition [15] [%]	Kd [17] [nM]	further results
Cn1cc(-n2cnc3c(NCc4nc5cc(Cl)c(Cl)cc5[nH]4)nc(N4CCOC[C@@H]4CO)nc32)cn1	333	145	42	69	42	77	–	–	–	–	–	–	–	–	–	–	–	–	–	–	–
Cc1cc(-n2cnc3c(NCc4nc5c(F)c(F)ccc5[nH]4)nc(N4CCOCC4)nc32)no1	–	–	5	23	2	55	69	100	23	3	8	99	99	40	64	16	2	0	1	–	–
Fc1cccc(-n2cnc3c(NCc4nc5c(F)c(F)ccc5[nH]4)nc(N4CCOCC4)nc32)c1	–	–	–	–	–	–	72	100	0	1	6	97	95	22	69	8	0	5	0	–	inhibition [16]: 18%
Cn1cc(-n2cnc3c(NCc4nc5cc(F)c(F)cc5[nH]4)nc(N4CCOCC4)nc32)cn1	–	–	5	23	2	55	–	–	–	–	–	–	–	–	–	–	–	–	–	–	–
COc1cc2nc(CNc3nc(N4CCOCC4)nc4c3ncn4-c3cnn(C)c3)[nH]c2cc1Cl	–	2620	–	–	–	–	98	12	–	–	–	–	–	–	–	–	–	–	–	38	Kd [18]: 2 nM; inhibition [19]: 99%
Cn1cc(-n2cnc3c(NCc4nc5cc(Cl)c(Cl)cc5[nH]4)nc(N4CCOC[C@H]4CO)nc32)cn1	6070	5360	39	54	29	54	–	–	–	–	–	–	–	–	–	–	–	–	–	–	Cmax [20]: 1430 ng/mL and 2.7 µM; AUC(0-t) [21]: 10 µM·h
FC(F)n1cc(-n2cnc3c(NCc4nc5cc(Cl)c(Cl)cc5[nH]4)nc(N4CCOCC4)nc32)cn1	1260	709	–	–	–	–	–	–	–	–	–	–	–	–	–	–	–	–	–	310	Kd [18]: 9 nM
Cn1cc(-n2cnc3c(NCc4nc5c(F)c(F)ccc5[nH]4)nc(N4CCOCC4)nc32)cn1	–	–	10	23	-3	56	69	100	0	6	3	99	99	0	43	16	0	0	0	–	–
Fc1ccc2[nH]c(CNc3nc(N4CCOCC4)nc4c3ncn4-c3cscn3)nc2c1F	870	1280	97	–	57	89	–	–	–	–	–	–	–	–	–	–	–	–	–	18	Kd [18]: 6 nM
